Experimental data reported in US11260003B2, “Antimicrobial composition and cosmetic containing antimicrobial composition” (ADEKA CORPORATION, priority 2017, dated 2022).

How the values were obtained:
Assay type in all cases: cell-based
[1] = tested on: Escherichia coli ATCC 8739, Pseudomonas aeruginosa ATCC 9027, Staphylococcus aureus ATCC 6538, Candida albicans ATCC 10231, Aspergillus brasiliensis ATCC 16404; experiment: five-species minimum inhibitory concentration (five-species MIC), microplate turbidity test
Description: Test solutions containing these microorganisms were prepared as follows: the bacteria were precultured on SCD (soybean casein digest) liquid medium and the yeast and fungus were precultured on glucose agar medium; this was followed in each case by adjustment of the microorganism concentration in the liquids to the level of 10^6 to 10^7 cfu/mL using 0.9% aqueous NaCl solution.
20 μL of each test solution was dispensed onto a microplate; 180 μL of each antimicrobial composition—prepared by the dilution with medium of component (B) and component (C) at the prescribed concentrations given in Table 1 and component (A) at various concentrations was added; and stirring was carried out to provide a mixed solution (the test sample). Component (A), component (B), and component (C) were prepared here so as to provide the prescribed concentrations in mass % in the mixed solutions. Each mixed solution was then cultured as follows: 48 hours in a thermostat at 33° C. for the bacterial mixed solutions; 3 days at 25° C. for the yeast mixed solutions; and 1 week at 25° C. for the fungus mixed solutions. The post-culture turbidity of each mixed solution was observed. For each microorganism, the mixed solutions containing component (A) at the various concentrations, and each blending condition for component (B) or component (C) (each of the mixed solutions), those mixed solutions were identified where turbidity or the presence of colonies/filaments was not seen (i.e., mixed solutions where growth of the test microorganism had been stopped). For each of the five microorganisms, the lowest component (A) concentration in the mixed solutions where growth had been stopped was designated the minimum inhibitory concentration. […] In addition, the antimicrobial activity (enhancement effect) was evaluated also using the numerical MIC values given in those instances where a “+” or “−” is provided.

[2] = tested on: Pseudomonas aeruginosa (bacteria) ATCC 9027; experiment: minimum inhibitory concentration (MIC), microplate turbidity test; details: mass % of component (A) (A-4 or A-5); 48 hours at 33° C.; component (B)/(C) at 5%
Description: (§1) P. aer: Pseudomonas aeruginosa (bacteria) ATCC 9027 Test solutions containing these microorganisms were prepared by preculture on SCD liquid medium followed by adjusting the microorganism concentration in the liquids to the level of 10^6 to 10^7 cfu/mL using a 0.9% aqueous NaCl solution. 20 μL of each test solution was dispensed onto a microplate; 180 μL of each antimicrobial composition—prepared by the dilution with medium of component (B) and component (C) at the prescribed concentrations and component (A) at various concentrations—was added; and stirring was carried out to provide a mixed solution (the test sample). Component (A), component (B), and component (C) were prepared here so as to provide the prescribed concentrations in mass % in the mixed solutions. Each mixed solution was then cultured for 48 hours in a thermostat at 33° C., after which the turbidity of each mixed solution was observed. […]

[3] = tested on: Escherichia coli (bacteria) ATCC 8739; experiment: as above; details: mass % of component (A) (A-4 or A-5); 48 hours at 33° C.; component (B)/(C) at 5%
Description: as §1, with “E. coli: Escherichia coli” for “P. aer: Pseudomonas aeruginosa”, “8739” for “9027”

MIC (%) P. aer [2] | MIC (%) E. coli [3] | SMILES | further results
 |  | CCCCC(CC)COCC(O)CO (stereo not shown) [Comp. Ex. 1, 2-ethylhexyl glyceryl ether] | five-species MIC (%) ([1]; Table 1, mass % of component (A) A-1 at which growth of all five microorganisms stopped, component (B)/(C) at prescribed %): 1.00+ %
 |  | CCCCCCCCOCC(O)CO (stereo not shown) [Comp. Ex. 5, octyl glyceryl ether] | five-species MIC (%) ([1]; Table 2, mass % of component (A) A-2 at which growth of all five microorganisms stopped, component (B)/(C) at prescribed %): 0.50+ %
 |  | OCC(O)COC1CCCCC1 (stereo not shown) [Comp. Ex. 9, cyclohexyl glyceryl ether] | five-species MIC (%) ([1]; Table 3, mass % of component (A) A-3 at which growth of all five microorganisms stopped, component (B) at prescribed %): 3.00%
0.38% | 0.13% | CCCCCCC(O)CO (stereo not shown) [Comp. Ex. 10, 1,2-octanediol] | 
0.75% | 0.25% | CCCCCCOCC(O)CO (stereo not shown) [compound 14, hexyl glyceryl ether] | 
